Tests used:
[1] = target: T1, porcine pancreatic α-amylase (PPA) (Sus scrofa, UniProt P00690); assay: α-Amylase inhibition assay by CNPG3 method; type: biochemical
T1 construct: purchased Sigma-Aldrich (St. Louis, MO)
T1 sequence (P00690 16-511): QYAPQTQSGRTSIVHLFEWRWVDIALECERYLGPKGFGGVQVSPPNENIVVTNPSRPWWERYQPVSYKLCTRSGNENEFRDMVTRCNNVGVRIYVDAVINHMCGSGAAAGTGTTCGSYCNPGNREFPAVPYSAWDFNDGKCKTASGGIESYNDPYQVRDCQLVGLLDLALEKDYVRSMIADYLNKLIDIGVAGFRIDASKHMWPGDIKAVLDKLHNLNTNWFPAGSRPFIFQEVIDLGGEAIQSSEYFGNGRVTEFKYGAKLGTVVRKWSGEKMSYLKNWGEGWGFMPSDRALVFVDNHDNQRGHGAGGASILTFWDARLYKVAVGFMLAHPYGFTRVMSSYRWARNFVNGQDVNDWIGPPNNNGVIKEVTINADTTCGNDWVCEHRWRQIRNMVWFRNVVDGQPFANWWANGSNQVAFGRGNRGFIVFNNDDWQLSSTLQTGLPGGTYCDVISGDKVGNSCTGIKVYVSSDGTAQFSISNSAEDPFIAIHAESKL
Procedure: The studied sample was dissolved in DMSO to give concentrations of 50, 100, and 200 mg/mL. The enzyme solution was prepared by mixing α-amylase in 100 mL of 40 mM phosphate buffer, pH 6.9. The assays were measured by mixing 80 mL of the studied sample, 20 mL of α-amylase solution, and 1 mL of 2-chloro-4-nitrophenol-α-D-maltotrioside (CNPG3). The mixture was incubated at 37 °C for 5 min. The absorbance was measured at 405 nm spectrophotometrically (Jenway 6405 UV/Visible, Staffordshire, UK). […] Percentage inhibition was calculated by the following expression and all tests were carried out in triplicate: PI = [(AbsorbanceControl-AbsorbanceTest)/AbsorbanceControl] × 100

[2] = test system: α-glucosidase; parameters: method as in Kim et al. ([2000]); conditions: ref Kim et al. ([2000]); cited from earlier work
[3] = DPPH radical-scavenging effect assay; conditions: 30 min incubation at room temperature, absorbance at 517 nm
Procedure: DPPH (1,1-diphenyl-2-picrylhydrazyl) radical-scavenging effect was evaluated following the procedure described in a previous study (Feki et al. [2005]). Various concentrations of extracts and fractions (5 μL) dissolved in methanol were added to 5 mL of a 0.004% methanol solution of DPPH. After a 30 min incubation period at room temperature, the absorbance was read against a blank at 517 nm. Inhibition of free radical, DPPH, in percent (I%) was calculated as follows: I% = (Ablank-Asample/Ablank)×100 where Ablank is the absorbance of the control reaction (containing all reagents except the studied sample) and Asample is the absorbance of the studied sample. Extract concentration providing 50% inhibition (IC50) was calculated from the graph plotted of inhibition percentage against extract concentration. The synthetic antioxidant reagents BHT and vitamin E were used as positive control and all tests were carried out in triplicate.

Row | SMILES | IC50 [1] [µM] | inhibitory activity against α-glucosidase [2] | DPPH IC50 [3] [µg/mL]
1 | O=c1cc(-c2ccc(O)c(-c3c(O)cc(O)c4c(=O)cc(-c5ccc(O)cc5)oc34)c2)oc2cc(O)cc(O)c12 [Amentoflavone] | 37.9 | relatively important inhibitory activity | 14.1 ± 0.4
2 | Cc1cc(C(C)(C)C)c(O)c(C(C)(C)C)c1 [BHT, butylate hydroxytoluene, reference compound] |  |  | 18.1 ± 0.2

Reference: article PMC7011873, “LC-MS–MS and GC-MS analyses of biologically active extracts and fractions from Tunisian Juniperus phoenice leaves” (Pharmaceutical Biology, 2016)
